In patent publication US9839632B2, “Methods and compositions using 4-amino-2-(2,6-dioxo-piperidine-3-yl)-isoindoline-1,3-dione for treatment and management of central nervous system cancers” (CELGENE CORPORATION, priority 2013, dated 2017):

System: Raji B lymphoma cells
Test: Orthotopic murine CNS lymphoma model, Raji (bioluminescence tumor growth, survival)
Type: in vivo, athymic mice
Conditions: for median survival: Raji model; for in vivo tumor growth (luminescence signal) vs control: P<0.05, n=8
Description: Animal and housing: Female athymic mice (8-10 weeks old and weighing 20-25 g at the beginning of the study) were purchased from Harlan laboratories. They were housed in a temperature-controlled sterilized room (23±2° C.) with a 12-h light/dark cycle and free access to food and water throughout the study. Animal use was approved by Mayo Foundation Institutional Animal Use and Care Committee and was in accordance with NIH Guide for the Care and Use of Laboratory Animals.
Orthotopic murine CNS lymphoma models: Two murine CNS lymphoma models were created by intracerebral injection of 2.5×10^4 luciferase-transfected Raji or 1×10^5 luciferase-transfected OCI-LY10 B lymphoma cells in athymic mice under anesthesia using a stereotactic platform. Eight-week-old athymic mice underwent minimum 7-day acclimation/quarantine prior to surgery. Surgery was performed in a laminar flow hood under sterile conditions. Tylenol 300 mg/kg PO was given for analgesia 24 hours before the surgery continuing 48 hours postoperatively. Anesthesia was achieved by inhalation of 1-2% isoflurane. After the mouse became well anesthetized, it was placed in the Kopf stereotactic instrument. A small amount of BNP antibiotic cream (a mixture of Bacitracin, Neomycin and Polymyxin) was smeared on its eyes to prevent infection and corneal damage during surgery. A strip of soft fabric was placed over the mouse's body and tail to prevent excessive heat loss during surgery. The scalp area was cleaned with a 2% solution of Betadine and dried with cotton tipped applicator. A midline sagittal incision was made in the scalp. A small burr hole was drilled in the left skull with a surgical drill (Kopf) or a Dremel drill according to the coordinates (AP: 0.5 mm, LM: 2.5 mm) as determined by reference to the mouse brain atlas by Franklin and Paxinos. Paxinos, 2001. The dura mater was surgically exposed, and a 10 μl-Hamilton syringe with a 26S-gauge beveled needle was lowered into the left cerebral hemisphere up to the depth of 3 mm and 5 μl of tumor cells was slowly infused (0.5 μl/min). The needle was left in place for 5 minutes to prevent reflux and then was slowly removed. The skin was closed with wound clips. The mice recovered from anesthesia and surgery in a warm environment and were not returned to their cages until motor activity returned. Cages were placed on top of a heating pad to minimize the loss of body heat during the recovery. The mice were monitored postoperatively at least twice a day for 5 days or until recovery was complete.
Bioluminescence imaging of mouse: After intracerebral injection of lymphoma cells, all the mice were subjected to bioluminesence imaging (“BLI”) twice a week starting at day-4 post-intracerebral injection to monitor the real-time in vivo tumor growth. BLI was conducted using a Xenogen Lumina optical imaging system (Caliper Life Sciences, Hopkinton, Mass.). Mice were anesthetized with isofluorane before intraperitoneal injections of luciferin at a dose of 150 mg/kg, providing a saturating substrate concentration for luciferase enzyme. Peak luminescent signals were recorded 10 minutes after luciferin injection. Regions of interest encompassing the intracranial area of signal were defined using Living Image software (Xenogen), and the total photons/s/steradian/cm^2 was recorded.
In vivo preclinical evaluation of 4-amino-2-(2,6-dioxo-piperidine-3-yl)-isoindoline-1,3-dione in murine CNS lymphoma models: Mice were imaged 4 days after intracerebral injection and were distributed among different treatment groups with equivalent average BLI signal. Real time tumor growth was monitored by BLI. Tumor growth and survival data were analyzed for statistical difference between the groups. Mice were assigned to four experimental groups and one vehicle control group in Raji model. Mice in experimental groups received 4-amino-2-(2,6-dioxo-piperidine-3-yl)-isoindoline-1,3-dione 0.3 mg/kg, 3 mg/kg, 10 mg/kg, or 30 mg/kg by oral gavage daily for 28 days.

`Nc1cccc2c1C(=O)N(C1CCC(=O)NC1=O)C2=O` (centres unmarked) [Pomalidomide, 4-amino-2-(2,6-dioxo-piperidine-3-yl)-isoindoline-1,3-dione] was tested, and the “body weight vs control group” value (3, 10 and 30 mg/kg treatment groups, murine CNS lymphoma model not specified) was “able to maintain their body weight better than those in control group”, the median survival (0.3 mg/kg oral gavage daily for 28 days) was 24 days and the median survival (3 mg/kg oral gavage daily for 28 days) was 28 days. For the same compound, the median survival (10 mg/kg oral gavage daily for 28 days) was 27 days, the median survival (30 mg/kg oral gavage daily for 28 days) was 31 days and the “in vivo tumor growth (luminescence signal) vs control” value (Raji model, 3, 10 and 30 mg/kg groups) was “significantly slower”. For the same compound, the “in vivo tumor growth (luminescence signal) vs control” value (Raji model, 3, 10 and 30 mg/kg groups, listed as 4-amino-2-(2,6-dioxo-piperidine-3-yl)-isoindoline-1,3-dione) was “reduction of tumor growth” and the “survival, Kaplan-Meier analysis vs control” value (Raji model, 3, 10 and 30 mg/kg groups, p<0.05, n=8) was “prolongation of survival”.
